Data: article PMC5293596 (Chemical research in toxicology, 2016)

Experiments:
P450 2A13 [1] = target: T1, P450 2A13 (Homo sapiens, UniProt Q16696); assay: Oxidation by P450 2A13 bicistronic membranes, HPLC; conditions: for metabolism (HPLC): product peaks only with NADPH-generating system; for Formation of oxygenated products on LC-MS analysis: results not shown
T1 sequence (Q16696 1-494): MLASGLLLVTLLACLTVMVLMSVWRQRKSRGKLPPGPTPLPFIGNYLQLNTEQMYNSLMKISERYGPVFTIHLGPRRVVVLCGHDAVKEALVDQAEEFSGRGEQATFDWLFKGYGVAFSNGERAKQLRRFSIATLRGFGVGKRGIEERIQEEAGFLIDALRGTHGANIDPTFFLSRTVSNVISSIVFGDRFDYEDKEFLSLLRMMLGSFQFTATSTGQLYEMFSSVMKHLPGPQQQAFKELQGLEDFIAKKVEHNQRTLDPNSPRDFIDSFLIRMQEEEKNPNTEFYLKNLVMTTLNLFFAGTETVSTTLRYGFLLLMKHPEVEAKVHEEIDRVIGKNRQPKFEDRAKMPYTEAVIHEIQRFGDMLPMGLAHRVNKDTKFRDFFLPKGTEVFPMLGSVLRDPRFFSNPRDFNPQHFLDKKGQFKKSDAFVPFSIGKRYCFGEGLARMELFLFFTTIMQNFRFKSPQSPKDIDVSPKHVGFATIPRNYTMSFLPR

P450 2A13 [2] = assay: Spectral binding titration; parameters: species or system human; conditions: P450 2A13 vs P450 2A6
P450 2A6 [3] = target: T2, P450 2A6 (Homo sapiens, UniProt P11509); assay: Oxidation by P450 2A6 bicistronic membranes, HPLC; conditions: product peaks only with NADPH-generating system
T2 sequence (P11509 1-494): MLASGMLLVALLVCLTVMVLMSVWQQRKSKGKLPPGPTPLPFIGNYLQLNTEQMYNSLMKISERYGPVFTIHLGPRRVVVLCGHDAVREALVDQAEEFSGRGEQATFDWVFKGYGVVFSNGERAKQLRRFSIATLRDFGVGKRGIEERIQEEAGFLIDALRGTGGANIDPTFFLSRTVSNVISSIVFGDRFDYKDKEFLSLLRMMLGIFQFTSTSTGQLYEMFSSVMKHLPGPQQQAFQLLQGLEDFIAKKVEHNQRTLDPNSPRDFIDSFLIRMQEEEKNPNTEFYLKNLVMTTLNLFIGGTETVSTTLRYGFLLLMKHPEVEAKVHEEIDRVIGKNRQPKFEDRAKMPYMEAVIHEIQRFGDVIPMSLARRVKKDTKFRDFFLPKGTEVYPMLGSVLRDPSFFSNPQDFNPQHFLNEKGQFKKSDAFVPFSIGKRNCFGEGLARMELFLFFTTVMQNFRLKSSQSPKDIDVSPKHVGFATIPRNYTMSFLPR

P450 1B1 (1B1.3, L432V) = target: T3, P450 1B1 (1B1.3, L432V) (Homo sapiens, UniProt Q16678, L432V); assay: Oxidation by P450 1B1 bicistronic membranes, HPLC; conditions: P450 1B1.3; Figure 5
T3 sequence (Q16678 1-543 L432V): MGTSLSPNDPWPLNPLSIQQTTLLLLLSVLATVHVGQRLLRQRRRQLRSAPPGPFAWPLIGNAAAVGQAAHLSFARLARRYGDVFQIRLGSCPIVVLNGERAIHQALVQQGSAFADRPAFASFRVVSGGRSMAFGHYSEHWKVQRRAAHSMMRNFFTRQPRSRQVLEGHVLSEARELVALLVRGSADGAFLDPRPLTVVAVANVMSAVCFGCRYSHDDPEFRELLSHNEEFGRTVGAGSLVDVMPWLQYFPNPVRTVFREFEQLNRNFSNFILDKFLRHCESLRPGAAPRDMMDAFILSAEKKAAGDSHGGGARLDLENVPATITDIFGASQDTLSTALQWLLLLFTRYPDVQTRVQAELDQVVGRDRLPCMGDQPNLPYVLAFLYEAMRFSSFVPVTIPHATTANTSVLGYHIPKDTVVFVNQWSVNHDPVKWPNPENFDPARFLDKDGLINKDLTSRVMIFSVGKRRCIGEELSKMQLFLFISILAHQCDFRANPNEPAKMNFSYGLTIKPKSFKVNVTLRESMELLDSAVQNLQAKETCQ

P450 1A2 [4] = target: T4, P450 1A2 (Homo sapiens, UniProt P05177); assay: Oxidation by P450 1A2 bicistronic membranes, HPLC; conditions: Figure 5
T4 sequence (P05177 1-516): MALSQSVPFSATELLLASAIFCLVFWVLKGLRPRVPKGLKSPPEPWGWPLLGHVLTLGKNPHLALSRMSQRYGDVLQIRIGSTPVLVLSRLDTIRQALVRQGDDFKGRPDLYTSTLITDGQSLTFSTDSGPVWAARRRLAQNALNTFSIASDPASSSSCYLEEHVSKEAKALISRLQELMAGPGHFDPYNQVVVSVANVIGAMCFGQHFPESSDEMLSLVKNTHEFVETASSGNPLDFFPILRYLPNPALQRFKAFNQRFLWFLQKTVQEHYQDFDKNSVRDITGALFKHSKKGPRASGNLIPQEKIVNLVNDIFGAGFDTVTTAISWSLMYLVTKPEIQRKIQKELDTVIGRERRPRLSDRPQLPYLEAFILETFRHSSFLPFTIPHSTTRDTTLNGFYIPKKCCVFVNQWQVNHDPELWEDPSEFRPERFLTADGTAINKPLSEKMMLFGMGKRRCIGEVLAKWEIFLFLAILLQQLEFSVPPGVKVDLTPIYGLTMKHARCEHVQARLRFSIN

P450 2A6 [5] = target: T2, P450 2A6; assay: Spectral binding titration; conditions: P450 2A6 1.0 μM, pH 7.4; means and S.E.
P450 1A2 [6] = target: T4, P450 1A2; assay: 7-Ethoxyresorufin O-deethylation by P450 1A2
P450 1A1 = target: T5, P450 1A1 (Homo sapiens, UniProt P04798); assay: 7-Ethoxyresorufin O-deethylation by P450 1A1
T5 sequence (P04798 1-512): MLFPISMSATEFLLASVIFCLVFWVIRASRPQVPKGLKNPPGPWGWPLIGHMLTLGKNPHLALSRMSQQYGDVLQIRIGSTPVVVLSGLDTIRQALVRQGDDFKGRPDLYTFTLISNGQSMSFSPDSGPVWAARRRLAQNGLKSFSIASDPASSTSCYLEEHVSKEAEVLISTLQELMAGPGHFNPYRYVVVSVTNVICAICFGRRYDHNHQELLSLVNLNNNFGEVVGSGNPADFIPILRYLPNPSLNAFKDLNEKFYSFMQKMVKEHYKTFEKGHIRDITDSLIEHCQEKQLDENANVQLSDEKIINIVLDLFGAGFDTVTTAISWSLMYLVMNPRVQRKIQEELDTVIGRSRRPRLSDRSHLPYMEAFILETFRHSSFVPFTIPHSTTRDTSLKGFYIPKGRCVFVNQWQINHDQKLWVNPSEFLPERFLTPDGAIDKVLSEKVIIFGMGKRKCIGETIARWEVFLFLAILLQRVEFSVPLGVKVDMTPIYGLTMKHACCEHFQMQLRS

P450 1B1 = target: T6, P450 1B1 (Homo sapiens, UniProt Q16678, L432V); assay: 7-Ethoxyresorufin O-deethylation by P450 1B1
T6 sequence (Q16678 1-543 L432V): T3 sequence (Q16678 1-543 L432V)

P450 2A13 [7] = target: T1, P450 2A13; assay: Spectral binding titration; conditions: P450 2A13

Row | SMILES | metabolism (HPLC) (P450 2A13 [1]) | metabolism (HPLC) (P450 2A6 [3]) | further results
1 | C#CCOCc1ccccc1-c1ccccc1 [2BMPE, 2-biphenyl methyl propargyl ether] | not detected | – | –
2 | C#CCOc1ccccc1-c1ccccc1 [2BPE, 2-biphenyl propargyl ether] | yes | – | –
3 | C#Cc1ccc2ccccc2c1 [2EN, 2-ethynylnaphthalene] | yes | yes | ΔAmax/Ks ratio with P450 2A13 relative to that with P450 2A6 (P450 2A13 [2]): about 10 fold
4 | C#Cc1ccc2c(ccc3ccccc32)c1 [2EPh, 2-ethynylphenanthrene] | yes | yes | Oxidation (product formation on HPLC) (P450 1B1 (1B1.3, L432V)): oxidized 2EPh at lower levels than P450s 2A13 and 2A6; Oxidation (product formation on HPLC) (P450 1A2 [4]): oxidized 2EPh at lower levels than P450s 2A13 and 2A6; Formation of oxygenated products on LC-MS analysis (P450 2A13 [1]): formation of oxygenated products
5 | CC#Cc1ccc2c(ccc3ccccc32)c1 [2PPh, 2-(1-propynyl)phenanthrene] | yes | yes | –
6 | C#Cc1ccc2ccc3ccccc3c2c1 [3EPh, 3-ethynylphenanthrene] | yes | yes | Formation of oxygenated products on LC-MS analysis (P450 2A13 [1]): formation of oxygenated products
7 | CC#Cc1ccc2ccc3ccccc3c2c1 [3PPh, 3-(1-propynyl)phenanthrene] | yes | – | Type I spectra Ks (spectral dissociation constant) (P450 2A6 [5]): ND (10 μM)
8 | C#CCOCc1ccc(-c2ccccc2)cc1 [4BMPE, 4-biphenyl methyl propargyl ether] | not detected | – | –
9 | C#CCOc1ccc(-c2ccccc2)cc1 [4BPE, 4-biphenyl propargyl ether] | yes | yes | –
10 | CCC#Cc1ccc(-c2ccccc2)cc1 [4BuB, 4-butynylbiphenyl] | not detected | – | –
11 | C#Cc1ccc(-c2ccccc2)cc1 [4EB, 4-ethynylbiphenyl] | not detected | not detected | –
12 | CC#Cc1ccc(-c2ccccc2)cc1 [4PB, 4-propynylbiphenyl] | not detected | – | –
13 | CCOc1ccc2nc3ccc(=O)cc-3oc2c1 [7-ethoxyresorufin] | – | – | Catalytic activity, 7-ethoxyresorufin O-deethylation (nmol product formed/min/nmol P450) (P450 1A2 [6]): 3.2 min⁻¹; Catalytic activity, 7-ethoxyresorufin O-deethylation (nmol product formed/min/nmol P450) (P450 1A1): 35 min⁻¹; Catalytic activity, 7-ethoxyresorufin O-deethylation (nmol product formed/min/nmol P450) (P450 1B1): 14 min⁻¹
14 | C#Cc1cc2ccccc2c2ccccc12 [9EPh, 9-ethynylphenanthrene] | not detected | – | Type I spectra Ks (spectral dissociation constant) (P450 2A6 [5]): ND (10 μM)
15 | CC#Cc1cc2ccccc2c2ccccc12 [9PPh, 9-(1-propynyl)phenanthrene] | not detected | – | –
16 | C#CCOc1ccccc1-c1ccccc1OCC#C [22BDPE, 2,2′-biphenyl dipropagyl ether] | not detected | – | –
17 | C#CCOc1ccc(-c2ccc(OCC#C)cc2)cc1 [44BDPE, 4,4′-biphenyl dipropargyl ether] | not detected | not detected | –
18 | c1ccc(-c2ccccc2)cc1 [biphenyl] | yes | yes | ΔAmax of Type I binding spectral change (P450 2A13 [7]): 0.045
19 | c1ccc2c(c1)ccc1ccccc12 [phenanthrene] | yes | yes | ΔAmax of Type I binding spectral change (P450 2A13 [7]): 0.063
